# Source: ChEMBL document CHEMBL4396887, “Five-Membered N-Heterocyclic Scaffolds as Novel Amino Bioisosteres at γ-Aminobutyric Acid (GABA) Type A Receptors and GABA Transporters” (J Med Chem, 2019)
# Legend:
# Assay type in all cases: cell-based
# [1] = molecular target: GABA-A receptor; alpha-1/beta-2/gamma-2 (Homo sapiens) (UniProt P14867+P47870+P18507); experiment: Agonist activity at recombinant human GABA-A alpha1beta2gamma2S receptor transiently expressed in human tsA201 cells assessed as GABA-induced maximum response incubated for 30 mins and measured up to 90 secs by FMP dye based FLIPR membrane potential blue assay relative to GABA
# [2] = molecular target: T1, Sodium- and chloride-dependent GABA transporter 2 (Homo sapiens, UniProt Q9NSD5); experiment: Inhibition of human GAT2 expressed in Flp-In CHO cells assessed as reduction in [3H]GABA uptake incubated for 3 mins by liquid scintillation counting method
# T1 sequence (Q9NSD5 whole entry): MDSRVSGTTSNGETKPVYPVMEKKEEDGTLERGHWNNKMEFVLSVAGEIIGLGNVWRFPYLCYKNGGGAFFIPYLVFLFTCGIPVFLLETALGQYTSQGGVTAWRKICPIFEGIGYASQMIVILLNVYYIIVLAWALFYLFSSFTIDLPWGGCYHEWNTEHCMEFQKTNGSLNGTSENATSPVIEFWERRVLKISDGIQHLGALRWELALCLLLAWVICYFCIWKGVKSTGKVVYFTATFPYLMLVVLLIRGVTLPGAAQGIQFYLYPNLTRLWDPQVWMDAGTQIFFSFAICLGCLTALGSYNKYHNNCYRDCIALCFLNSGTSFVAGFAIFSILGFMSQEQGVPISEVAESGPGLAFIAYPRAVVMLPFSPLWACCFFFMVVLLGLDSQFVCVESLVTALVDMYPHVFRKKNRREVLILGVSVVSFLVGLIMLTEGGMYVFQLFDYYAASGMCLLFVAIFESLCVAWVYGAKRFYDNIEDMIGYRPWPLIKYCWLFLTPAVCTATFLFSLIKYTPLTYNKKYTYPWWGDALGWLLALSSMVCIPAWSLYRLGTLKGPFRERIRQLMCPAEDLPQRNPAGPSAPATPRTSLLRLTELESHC
# [3] = molecular target: T2, Sodium- and chloride-dependent GABA transporter 3 (Homo sapiens, UniProt P48066); experiment: Inhibition of human GAT3 expressed in Flp-In CHO cells assessed as reduction in [3H]GABA uptake incubated for 3 mins by liquid scintillation counting method; details: read-out: IC50
# T2 sequence (P48066 whole entry): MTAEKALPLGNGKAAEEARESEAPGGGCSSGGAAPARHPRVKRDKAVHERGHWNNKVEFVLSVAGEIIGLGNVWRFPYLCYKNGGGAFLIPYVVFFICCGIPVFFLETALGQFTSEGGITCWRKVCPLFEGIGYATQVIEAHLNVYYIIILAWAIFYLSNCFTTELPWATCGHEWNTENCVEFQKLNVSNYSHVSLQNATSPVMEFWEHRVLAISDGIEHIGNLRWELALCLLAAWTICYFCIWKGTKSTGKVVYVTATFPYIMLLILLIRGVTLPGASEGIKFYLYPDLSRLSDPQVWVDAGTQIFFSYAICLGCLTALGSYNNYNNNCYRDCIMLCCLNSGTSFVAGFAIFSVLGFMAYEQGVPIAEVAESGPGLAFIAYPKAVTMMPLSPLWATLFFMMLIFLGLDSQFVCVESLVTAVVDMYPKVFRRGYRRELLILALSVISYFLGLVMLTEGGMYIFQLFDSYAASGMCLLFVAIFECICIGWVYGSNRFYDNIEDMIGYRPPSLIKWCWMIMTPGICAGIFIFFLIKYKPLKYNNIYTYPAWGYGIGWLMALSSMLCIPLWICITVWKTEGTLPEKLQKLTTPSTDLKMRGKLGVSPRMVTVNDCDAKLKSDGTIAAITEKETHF
# [4] = molecular target: T3, Sodium- and chloride-dependent GABA transporter 3 (Homo sapiens) (UniProt P48066); experiment: Inhibition of human GAT3 expressed in Flp-In CHO cells assessed as reduction in [3H]GABA uptake at 100 uM incubated for 3 mins by liquid scintillation counting method relative to control
# T3 sequence (whole entry): T2 sequence (P48066 whole entry)
# [5] = molecular target: T4, Sodium- and chloride-dependent GABA transporter 2 (Homo sapiens) (UniProt Q9NSD5); experiment: Inhibition of human GAT2 expressed in Flp-In CHO cells assessed as reduction in [3H]GABA uptake at 100 uM incubated for 3 mins by liquid scintillation counting method relative to control
# T4 sequence (whole entry): T1 sequence (Q9NSD5 whole entry)
# Homo sapiens = organism: Homo sapiens; experiment: Agonist activity at recombinant human GABA-A alpha3beta2gamma2S receptor transiently expressed in human tsA201 cells assessed as GABA-induced maximum response incubated for 30 mins and measured up to 90 secs by FMP dye based FLIPR membrane potential blue assay relative to GABA
# [6] = molecular target: Gamma-aminobutyric acid receptor subunit rho-1 (Homo sapiens, UniProt P24046); experiment: Agonist activity at recombinant human GABA-A rho-1 receptor transiently expressed in human tsA201 cells assessed as GABA-induced maximum response incubated for 30 mins and measured up to 90 secs by FMP dye based FLIPR membrane potential blue assay relative to GABA
# [7] = molecular target: T5, Sodium- and chloride-dependent betaine transporter (Homo sapiens) (UniProt P48065); experiment: Inhibition of human BGT1 expressed in Flp-In CHO cells assessed as reduction in [3H]GABA uptake at 100 uM incubated for 3 mins by liquid scintillation counting method relative to control
# T5 sequence (whole entry): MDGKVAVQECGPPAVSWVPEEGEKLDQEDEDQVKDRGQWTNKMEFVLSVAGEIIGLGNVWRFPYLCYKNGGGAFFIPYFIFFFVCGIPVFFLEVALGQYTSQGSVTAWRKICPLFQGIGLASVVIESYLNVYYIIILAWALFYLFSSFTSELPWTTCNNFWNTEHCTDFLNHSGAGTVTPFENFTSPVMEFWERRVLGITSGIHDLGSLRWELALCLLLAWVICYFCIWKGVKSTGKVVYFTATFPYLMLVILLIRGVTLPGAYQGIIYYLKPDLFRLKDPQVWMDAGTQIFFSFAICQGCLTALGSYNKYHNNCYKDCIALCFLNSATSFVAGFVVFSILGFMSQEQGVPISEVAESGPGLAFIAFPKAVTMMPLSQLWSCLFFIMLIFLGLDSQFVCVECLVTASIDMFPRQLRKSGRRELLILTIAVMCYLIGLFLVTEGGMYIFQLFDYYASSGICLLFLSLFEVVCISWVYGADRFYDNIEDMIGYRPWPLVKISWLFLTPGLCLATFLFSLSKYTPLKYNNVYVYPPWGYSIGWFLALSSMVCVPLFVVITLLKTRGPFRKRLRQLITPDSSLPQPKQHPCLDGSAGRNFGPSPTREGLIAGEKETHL
# [8] = molecular target: Gamma-aminobutyric acid receptor subunit alpha-4/beta-2/gamma-2 (Homo sapiens, UniProt P47870+P18507+P48169); experiment: Agonist activity at recombinant human GABA-A alpha4beta2gamma2S receptor transiently expressed in human tsA201 cells assessed as GABA-induced maximum response incubated for 30 mins and measured up to 90 secs by FMP dye based FLIPR membrane potential blue assay relative to GABA
# [9] = molecular target: Gamma-aminobutyric acid receptor subunit alpha-5/beta-2/gamma-2 (Homo sapiens) (UniProt P47870+P18507+P31644); experiment: Agonist activity at recombinant human GABA-A alpha5beta2gamma2S receptor transiently expressed in human tsA201 cells assessed as GABA-induced maximum response incubated for 30 mins and measured up to 90 secs by FMP dye based FLIPR membrane potential blue assay relative to GABA
# [10] = molecular target: Sodium- and chloride-dependent GABA transporter 1 (Homo sapiens, UniProt P30531); experiment: Inhibition of human GAT1 expressed in Flp-In CHO cells assessed as reduction in [3H]GABA uptake at 100 uM incubated for 3 mins by liquid scintillation counting method relative to control
# Sodium- and chloride-dependent GABA transporter 1, sequence (P30531 whole entry, looked up): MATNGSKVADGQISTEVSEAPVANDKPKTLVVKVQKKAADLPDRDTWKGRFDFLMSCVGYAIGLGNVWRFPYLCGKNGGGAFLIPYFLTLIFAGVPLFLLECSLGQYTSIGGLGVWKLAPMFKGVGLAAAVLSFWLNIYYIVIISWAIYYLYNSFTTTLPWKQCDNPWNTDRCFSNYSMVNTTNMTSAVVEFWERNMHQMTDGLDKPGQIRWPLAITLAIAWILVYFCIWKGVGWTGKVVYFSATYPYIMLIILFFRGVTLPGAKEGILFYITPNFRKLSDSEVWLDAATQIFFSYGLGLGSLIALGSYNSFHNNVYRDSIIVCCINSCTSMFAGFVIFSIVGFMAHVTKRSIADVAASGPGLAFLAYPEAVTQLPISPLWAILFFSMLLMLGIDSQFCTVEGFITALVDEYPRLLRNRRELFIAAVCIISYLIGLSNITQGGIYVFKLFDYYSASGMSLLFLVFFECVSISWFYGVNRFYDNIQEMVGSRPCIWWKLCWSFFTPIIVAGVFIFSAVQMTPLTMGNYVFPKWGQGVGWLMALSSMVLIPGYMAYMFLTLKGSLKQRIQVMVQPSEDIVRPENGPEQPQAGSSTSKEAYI
# Gamma-aminobutyric acid receptor subunit rho-1, sequence (P24046 whole entry): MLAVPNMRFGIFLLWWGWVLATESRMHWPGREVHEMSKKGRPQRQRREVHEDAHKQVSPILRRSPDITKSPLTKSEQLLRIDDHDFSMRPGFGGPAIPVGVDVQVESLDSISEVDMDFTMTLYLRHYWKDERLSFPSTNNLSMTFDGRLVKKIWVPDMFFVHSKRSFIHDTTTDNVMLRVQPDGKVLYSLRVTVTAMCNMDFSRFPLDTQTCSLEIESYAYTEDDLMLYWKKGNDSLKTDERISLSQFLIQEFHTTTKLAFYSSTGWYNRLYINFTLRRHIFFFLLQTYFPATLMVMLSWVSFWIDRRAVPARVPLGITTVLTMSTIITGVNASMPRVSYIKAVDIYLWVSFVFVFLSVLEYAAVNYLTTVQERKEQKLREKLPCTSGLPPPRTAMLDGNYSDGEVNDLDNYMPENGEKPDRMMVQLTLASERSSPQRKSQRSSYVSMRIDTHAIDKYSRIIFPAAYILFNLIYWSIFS
Compound,Rmax [1] [%],IC50 [2] [µM],IC50 [3] [µM],inhibition [4] [%],inhibition [5] [%],Rmax (Homo sapiens) [%],Rmax [6] [%],inhibition [7] [%],Rmax [8] [%],Rmax [9] [%],inhibition [10] [%]
NCCCC(=O)O [GAMMA-AMINOBUTYRIC ACID],100,26,11,,,,,,,,
CC(C(=O)O)C1CSC(N)=N1 (stereo in doubt; l-10a),69,,,> 30,> 30,83,63,> 30,32,97,> 30
